ChEMBL document CHEMBL3817847, “Design and synthesis of fused soluble epoxide hydrolase/peroxisome proliferator-activated receptor modulators” (Medchemcomm, 2016)
Calls of active or inactive are those of the source. No cut-off for these calls is given here.

Assays:
[1] = target: T1, Bifunctional epoxide hydrolase 2 (Homo sapiens, UniProt P34913); experiment: Inhibition of recombinant human […] assessed as product formation preincubated for 30 mins followed by addition of (3-phenyl-cyano-(6-methoxy-2-naphthalenyl)methyl ester-2-oxirane-acetic acid as substrate measured after 30 mins by fluorescence analysis
T1 sequence (P34913 whole entry): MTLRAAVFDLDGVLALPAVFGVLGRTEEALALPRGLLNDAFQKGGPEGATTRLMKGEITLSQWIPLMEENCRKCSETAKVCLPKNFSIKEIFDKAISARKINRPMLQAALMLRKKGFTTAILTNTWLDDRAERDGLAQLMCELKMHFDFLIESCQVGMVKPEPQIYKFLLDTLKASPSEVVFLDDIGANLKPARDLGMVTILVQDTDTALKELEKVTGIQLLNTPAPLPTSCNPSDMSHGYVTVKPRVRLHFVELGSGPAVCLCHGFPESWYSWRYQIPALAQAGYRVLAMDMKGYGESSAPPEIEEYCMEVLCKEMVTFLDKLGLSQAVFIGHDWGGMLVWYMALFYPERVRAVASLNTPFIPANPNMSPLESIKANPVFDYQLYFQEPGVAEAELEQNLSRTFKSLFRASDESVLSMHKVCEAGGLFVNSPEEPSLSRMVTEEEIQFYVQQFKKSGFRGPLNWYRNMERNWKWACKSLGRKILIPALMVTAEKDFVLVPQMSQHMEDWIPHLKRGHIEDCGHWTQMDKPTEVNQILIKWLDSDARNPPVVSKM

[2] = target: T2, Peroxisome proliferator-activated receptor delta (Homo sapiens, UniProt Q03181); experiment: Agonist activity at Gal4-tagged human PPARdelta ligand binding domain expressed in COS-7 cells measured after overnight incubation by dual-glo luciferase reporter gene assay; format: cell-based
T2 sequence (Q03181 whole entry): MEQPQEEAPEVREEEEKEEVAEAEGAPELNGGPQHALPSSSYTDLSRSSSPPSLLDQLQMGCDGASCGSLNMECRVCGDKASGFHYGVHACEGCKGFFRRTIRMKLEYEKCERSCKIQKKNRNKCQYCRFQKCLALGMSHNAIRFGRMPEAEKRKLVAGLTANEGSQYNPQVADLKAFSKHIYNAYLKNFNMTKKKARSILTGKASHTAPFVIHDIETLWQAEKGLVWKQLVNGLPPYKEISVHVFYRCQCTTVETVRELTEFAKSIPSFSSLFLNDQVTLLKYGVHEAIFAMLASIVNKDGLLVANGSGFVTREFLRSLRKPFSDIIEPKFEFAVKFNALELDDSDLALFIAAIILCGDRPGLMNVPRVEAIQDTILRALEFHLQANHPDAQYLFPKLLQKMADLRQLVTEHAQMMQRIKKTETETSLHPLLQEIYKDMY

[3] = target: T3, Peroxisome proliferator-activated receptor alpha (Homo sapiens, UniProt Q07869); experiment: Agonist activity at Gal4-tagged human PPARalpha ligand binding domain expressed in COS-7 cells measured after overnight incubation by dual-glo luciferase reporter gene assay; format: cell-based
T3 sequence (Q07869 whole entry): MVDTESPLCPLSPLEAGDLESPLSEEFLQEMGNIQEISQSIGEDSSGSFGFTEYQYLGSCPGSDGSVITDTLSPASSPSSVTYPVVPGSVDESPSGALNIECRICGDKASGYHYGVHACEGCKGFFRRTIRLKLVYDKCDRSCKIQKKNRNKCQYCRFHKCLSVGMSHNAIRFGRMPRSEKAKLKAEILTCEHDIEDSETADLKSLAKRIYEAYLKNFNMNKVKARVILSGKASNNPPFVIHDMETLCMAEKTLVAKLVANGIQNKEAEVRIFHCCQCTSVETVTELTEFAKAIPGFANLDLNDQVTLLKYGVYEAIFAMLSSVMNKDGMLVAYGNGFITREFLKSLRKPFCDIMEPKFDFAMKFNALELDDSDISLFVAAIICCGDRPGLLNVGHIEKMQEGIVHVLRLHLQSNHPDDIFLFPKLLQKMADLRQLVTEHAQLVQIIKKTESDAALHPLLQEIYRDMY

[4] = target: T4, Peroxisome proliferator-activated receptor gamma (Homo sapiens, UniProt P37231); experiment: Agonist activity at Gal4-tagged human PPARgamma ligand binding domain expressed in COS-7 cells measured after overnight incubation by dual-glo luciferase reporter gene assay; format: cell-based
T4 sequence (P37231 whole entry): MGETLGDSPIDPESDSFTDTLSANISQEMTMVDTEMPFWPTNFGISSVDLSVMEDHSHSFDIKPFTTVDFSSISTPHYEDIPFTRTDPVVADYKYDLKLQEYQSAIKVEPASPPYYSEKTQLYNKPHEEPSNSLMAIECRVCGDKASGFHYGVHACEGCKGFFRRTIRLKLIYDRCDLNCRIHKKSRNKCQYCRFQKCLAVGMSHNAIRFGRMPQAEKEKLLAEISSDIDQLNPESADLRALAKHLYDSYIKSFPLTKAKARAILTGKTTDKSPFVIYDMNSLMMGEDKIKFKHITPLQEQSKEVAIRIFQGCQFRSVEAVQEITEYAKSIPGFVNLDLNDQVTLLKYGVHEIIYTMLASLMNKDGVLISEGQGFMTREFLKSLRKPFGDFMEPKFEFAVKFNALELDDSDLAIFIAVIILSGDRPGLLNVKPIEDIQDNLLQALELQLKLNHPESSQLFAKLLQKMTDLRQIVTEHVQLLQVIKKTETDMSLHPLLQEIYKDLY

[5] = target: T5, Peroxisome proliferator-activated receptor gamma (Homo sapiens) (UniProt P37231); experiment: Agonist activity at Gal4-tagged human PPARgamma ligand binding domain expressed in COS-7 cells at 30 uM measured after overnight incubation by dual-glo luciferase reporter gene assay; format: cell-based
T5 sequence (whole entry): T4 sequence (P37231 whole entry)

[6] = target: T6, Peroxisome proliferator-activated receptor delta (Homo sapiens) (UniProt Q03181); experiment: Agonist activity at Gal4-tagged human PPARdelta ligand binding domain expressed in COS-7 cells at 30 uM measured after overnight incubation by dual-glo luciferase reporter gene assay; format: cell-based
T6 sequence (whole entry): T2 sequence (Q03181 whole entry)

[7] = target: T7, Peroxisome proliferator-activated receptor alpha (Homo sapiens) (UniProt Q07869); experiment: Agonist activity at Gal4-tagged human PPARalpha ligand binding domain expressed in COS-7 cells at 30 uM measured after overnight incubation by dual-glo luciferase reporter gene assay; format: cell-based
T7 sequence (whole entry): T3 sequence (Q07869 whole entry)

[8] = target: T5, Peroxisome proliferator-activated receptor gamma (Homo sapiens); experiment: Agonist activity at Gal4-tagged human PPARgamma ligand binding domain expressed in COS-7 cells at 10 uM measured after overnight incubation by dual-glo luciferase reporter gene assay; format: cell-based
[9] = test system: 3T3-L1; experiment: Agonist activity at PPAR in mouse 3T3L1 cells assessed as increase in adipocyte differentiation at 2 uM after 14 days by Oil Red O staining method; format: cell-based
[10] = test system: 3T3-L1; experiment: Partial agonist activity at PPAR in mouse 3T3L1 cells assessed as increase in adipocyte differentiation after 14 days by Oil Red O staining method; format: cell-based
[11] = target: T7, Peroxisome proliferator-activated receptor alpha (Homo sapiens); experiment: Agonist activity at Gal4-tagged human PPARalpha ligand binding domain expressed in COS-7 cells at 10 um measured after overnight incubation by dual-glo luciferase reporter gene assay; format: cell-based

| Structure (SMILES) | IC50 ([1]; read-out: IC50) [nM] | EC50 ([2]; cos-7) | EC50 ([3]; cos-7) | EC50 ([4]; cos-7) | other results |
| --- | --- | --- | --- | --- | --- |
| CCOC(=O)/C(=C/c1ccc(N2CCC(C(=O)NCc3ccccc3C(F)(F)F)CC2)cc1)CC | 40 | Not Active | Not Active | Not Active |  |
| CCCCCCC(Sc1nc(Cl)cc(N2CCC(C(=O)NCc3ccccc3C(F)(F)F)CC2)n1)C(=O)OCC (configuration not stated) | 2500 | Not Active | Not Active | Not Active |  |
| CCOC(=O)C(C)Oc1ccc(CCNC(=O)Nc2ccc(Cl)cc2)cc1 (configuration not stated) | 27 |  |  |  | Activity [5]: inactive; Activity [6]: inactive; Activity [7]: inactive |
| O=C(Nc1ccc(I)cc1)NC1CCCCC1 |  | Not Active | Not Active |  | Emax [8]: 22% |
| CNc1nc(C)nc(N[C@H]2CCC[C@@H](C(=O)NCc3ccc(C#N)cc3C(F)(F)F)C2)n1 [GSK2256294] |  | Not Active | Not Active | Not Active |  |
| CC(C)(Oc1ccc(CCNC(=O)c2ccc(Cl)cc2)cc1)C(=O)O [BEZAFIBRATE] |  |  |  |  | IC50 [1]: Not Active; EC50 ([2]; read-out: EC50): 22600 nM; EC50 ([4]; read-out: EC50): 15400 nM |
| CC/C(=C\c1ccc(N2CCC(C(=O)NCc3ccccc3C(F)(F)F)CC2)cc1)C(=O)O | 27 | Not Active | Not Active | Not Active |  |
| CN(CCOc1ccc(CC2SC(=O)NC2=O)cc1)c1ccccn1 (configuration not stated) |  |  |  |  | Activity [9]: Active |
| CCCCCCC(Sc1nc(Cl)cc(Nc2ccc(Nc3ccccc3)cc2)n1)C(=O)O (configuration not stated) |  | Not Active |  |  | IC50 [1]: Not Active; EC50 ([3]; read-out: EC50): 67 nM |
| CCOC(=O)C(C)Oc1ccc(CNC(=O)Nc2ccc(Cl)cc2)cc1 (configuration not stated) | 64 |  |  |  | Activity [5]: inactive; Activity [6]: inactive; Activity [7]: inactive |
| CCCCCCC(Sc1nc(Cl)cc(NCCCC(=O)NCc2ccccc2C(F)(F)F)n1)C(=O)O (configuration not stated) | 1200 | Not Active |  |  | Activity [10]: Dose-dependent effect; EC50 ([3]; read-out: EC50): 2500 nM; EC50 ([4]; read-out: EC50): 6000 nM |
| CCCCCCC(Sc1nc(Cl)cc(N2CCC(C(=O)NCc3ccccc3C(F)(F)F)CC2)n1)C(=O)O (configuration not stated) | 300 | Not Active |  | Not Active | Emax [11]: 65% |
| CCCCCCC(Sc1nc(Cl)cc(NCCCC(=O)NCc2ccccc2C(F)(F)F)n1)C(=O)OCC (configuration not stated) | 1300 | Not Active | Not Active | Not Active |  |
| CCC(Cc1ccc(N2CCC(C(=O)NCc3ccccc3C(F)(F)F)CC2)cc1)C(=O)O (configuration not stated) | 75 | Not Active | Not Active | Not Active |  |
| CC(Oc1ccc(CCNC(=O)Nc2ccc(Cl)cc2)cc1)C(=O)O (configuration not stated) | 570 |  |  |  | Activity [5]: inactive; Activity [6]: inactive; Activity [7]: inactive |
| CCOC(=O)C(CC)Cc1ccc(N2CCC(C(=O)NCc3ccccc3C(F)(F)F)CC2)cc1 (configuration not stated) | 23 | Not Active | Not Active | Not Active |  |
| CC(Oc1ccc(CNC(=O)Nc2ccc(Cl)cc2)cc1)C(=O)O (configuration not stated) | 850 |  |  |  | Activity [5]: inactive; Activity [6]: inactive; Activity [7]: inactive |
